For 1 compound, EC50 results are on record in US20260116902A1, “NOVEL COMPOUND AS FUNCTIONAL ANTAGONIST FOR S1PR1 AND S1PR4” (NEXTGEN BIOSCIENCE CO., LTD., priority 2024, published 2026).

The assay addresses T1, S1PR1 (Homo sapiens, UniProt P21453).
T1 construct: host or cells: CHO-K1 (PathHunter eXpress β-Arrestin GPCR cells)
The assay is described as follows: β-arrestin recruitment assay (PathHunter CHO-K1), S1PR1. The class given is cell-based. Conditions: agonism. How it is done: To this end, each of the cell lines in which S1PR1, S1PR2, S1PR3, and S1PR4 are overexpressed (PathHunter® CHO-K1 eXpress β-Arrestin GPCR cells; DiscoverX, Fremont, USA) was seeded in a 384-well plate at 5000 cells/well and cultured using an AssayComplete™ Cell Culture Kit-107 (DiscoverX, Fremont, USA). […] A PathHunter detection reagent cocktail (DiscoverX, Fremont, USA) was added in accordance with the manufacturer's instructions and incubated for 1 hour, followed by measuring a chemiluminescent signal (luminescence reader, 0.1 to 1 second/well).
In general terms: Activated receptors often draw arrestin, which recruitment assays turn into a signal.

T1 sequence (P21453 whole entry): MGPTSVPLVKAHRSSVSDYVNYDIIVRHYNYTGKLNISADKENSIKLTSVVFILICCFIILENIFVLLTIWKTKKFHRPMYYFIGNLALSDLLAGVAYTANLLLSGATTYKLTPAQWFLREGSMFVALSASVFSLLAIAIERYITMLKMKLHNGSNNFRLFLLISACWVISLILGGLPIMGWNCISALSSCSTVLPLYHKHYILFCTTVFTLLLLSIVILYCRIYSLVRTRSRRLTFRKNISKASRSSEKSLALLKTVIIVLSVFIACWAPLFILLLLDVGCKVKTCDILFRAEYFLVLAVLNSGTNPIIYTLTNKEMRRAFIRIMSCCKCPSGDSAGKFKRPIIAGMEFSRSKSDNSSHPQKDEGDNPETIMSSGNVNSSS

On to `CCCCCCCCCCCCC/C=C/[C@@H](O)[C@@H](N)COP(=O)(O)O` [Compound S1P, sphingosine-1-phosphate], for which the EC50 (commonly the concentration giving half of the maximal effect) was found to be 16.3 nM.
